In US9051592B2, “Methods of ganglioside production” (Garnet BioTherapeutics, Inc., priority 2012, dated 2015):
Read-outs that look alike come from different tables or passages of the source.

Legend:
ADSC = type: cell-based, Human
Lonza BMSC = experiment: GM1 induction by CLQ treatment, CTB-Alexa488 staining (Table 4); type: cell-based, Human; conditions: Lonza MSC basal medium + growth supplements, 10,000 per well, CLQ 48-120 hours
Protocol: Human bone marrow-derived stromal cells, adipose-derived stromal cells, dermal fibroblasts, and fibroblasts from subjects diagnosed with GM1 gangliosidosis, as well as immortalized neuroblastoma cells (SHSY-5Y, SHSY-S and SK-N-AS), Chinese Hamster Ovary cells (CHO-K1), and Human Embryonic Kidney cells (HEK293) were purchased from commercial sources. Cells were cultured on 24 well plates in standard culture medium, at a density of 2000-20,000 cells/well overnight and either maintained in standard culture medium (CONTROL) or treated with chloroquine (CLQ) according to the conditions listed in Table 4 below. Cells were maintained in a tissue culture incubator at approximately 37° C. in a humidified atmosphere comprising approximately 5% CO2 and approximately 21% O2 balanced with N2. After treatment for 48-120 hours, the cells were fixed with 4% paraformaldehyde and stained with CTB-Alexa488 to detect GM1 ganglioside. Extensive GM1 accumulation is evident in most cells types compared to controls maintained in standard culture media alone. (FIGS. 10 and 11 and Table 4).

[1] = test system: GBT-ABMSC, Lonza BMSC, Lonza ADSC, dermal fibroblast and GM1 fb cells; type: cell-based, Human
GM1 fibroblast = type: cell-based, Human
CHO-K1 = type: cell-based, Chinese Hamster
[2] = test system: Affected sheep bone marrow cells (SBM)
GBT-ABMSC = type: cell-based, Human
[3] = test system: Affected sheep bone marrow cells (SBM); experiment: GM1 induction in affected sheep bone marrow cells by different treatments, CTB-Alexa 488 staining (Table 2); conditions: affected SBM 20,000 cells/well, 72 H (Poly-L-Lysine coated coverslips 6 Days)
[4] = test system: human bone marrow-derived cells (HBM); experiment: GM1 up-regulation, CTB-HRP normalized to Alamar Blue (Example 3, FIG. 3); type: cell-based
SHSY-S = type: cell-based
[5] = test system: Human bone marrow cells (HBM); conditions: HBM 20,000 cells/well, serum-free medium 72 H, chloroquine 48 H
[6] = test system: Adult Human Bone Marrow Cells
SHSY-5Y = type: cell-based, human
Dermal fibroblast = type: cell-based, Human
[7] = test system: SHSY-5Y, SHSY-S, SK-N-AS, CHO-K1 and HEK293 cells; type: cell-based
SK-N-AS = type: cell-based
HEK293 = type: cell-based, Human
[8] = test system: PC12 (rat adrenal medulla tumor) cells; conditions: Yuyama et al., FEBS Lett. 580:6972-6976 (2006); cited from earlier work
[9] = test system: HT22 (mouse hippocampal) cells; conditions: Hirata et al., J. Neurochem. 119:839-847 (2011); cited from earlier work
[10] = test system: Parkinson's disease subjects; conditions: five-year study; Schneider et al., J. Neurol. Sci. 292:45-51 (2010); cited from earlier work
[11] = pretreatment; background statement; cited from earlier work
[12] = test system: Parkinson's disease subjects; conditions: short-term treatment; Schneider et al., Neurology 50:1630-1636 (1998); cited from earlier work
[13] = test system: central nervous system lesions in experimental animals; conditions: background statement; cited from earlier work

## CCN(CC)CCCC(C)Nc1ccnc2cc(Cl)ccc12 (centres unmarked) [Chloroquine, chloroquine]
ADSC
  % Increase in Degree of Staining with induction: 28%
Lonza BMSC
  % Increase in Degree of Staining with induction: 119%
[1]
  GM1 signal (CTB-Alexa488) compared to control conditions, FIG. 11: more abundant and intense compared to control conditions for all cell types
GM1 fibroblast
  % Increase in Degree of Staining with induction: 28%
CHO-K1
  % Increase in Degree of Staining with induction: 83%
[2]
  Degree of Cell Death: +
GBT-ABMSC
  % Increase in Degree of Staining with induction: 65%
SHSY-5Y cells
  Cell Death: +
[3]; listed as CLQ
  Degree of GM1 Staining: also induced GM1, but not as much as CLQ/NIM
[4]
  up-regulation of GM1 expression (CTB-HRP normalized to Alamar Blue) versus control: approximately 8 fold
SHSY-S
  % Increase in Degree of Staining with induction: 19%
[5]
  Degree of GM1 Staining: +++++
[5]; listed as CLQ
  Degree of GM1 Staining: most intense staining
[6]
  Cell Death: 10-20%
SHSY-5Y
  % Increase in Degree of Staining with induction: 104%
Dermal fibroblast
  % Increase in Degree of Staining with induction: 63%
[7]
  GM1 signal (CTB-Alexa488) compared to control conditions, FIG. 10: more abundant and intense compared to control conditions for all cell types
SK-N-AS
  % Increase in Degree of Staining with induction: 19%
HEK293
  % Increase in Degree of Staining with induction: 15%
[8]
  accumulation in PC12 cells: induce accumulation
[9]
  GM1 levels in HT22 cells: only moderately increased GM1 levels

## CCCCCCCCCCCCC/C=C/[C@@H](O)[C@H](CO[C@@H]1O[C@H](CO)[C@@H](O[C@@H]2O[C@H](CO)[C@H](O[C@@H]3O[C@H](CO)[C@H](O)[C@H](O[C@@H]4O[C@H](CO)[C@H](O)[C@H](O)[C@H]4O)[C@H]3NC(C)=O)[C@H](O[C@]3(C(=O)O)C[C@@](O)(CO)[C@@H](NC(C)=O)[C@H]([C@H](O)CO)O3)[C@H]2O)[C@H](O)[C@H]1O)NC(=O)CCCCCCCCCCCCCCCCC [GM1]
[10]
  clinical benefit of long-term use: may provide some clinical benefit
  safety of long-term use: safe
[11]
  damage resulting from neurotoxin exposures: inhibits damage
[12]
  symptom reduction: significant symptom reduction
[13]
  recovery from central nervous system lesions: significant biochemical and behavioral recovery

## N[C@H]1C(O)O[C@H](CO)[C@@H](O)[C@@H]1O (some centres unmarked) [Glucosamine, glucosamine]
[3]
  Degree of GM1 Staining: also induced GM1, but to a lesser degree

## PDGF
[2]
  Degree of Cell Death: −

## O=C[C@H](O)[C@@H](O)[C@@H](O)[C@H](O)CO [Switch from No glucose to galactose, galactose]
SHSY-5Y cells
  Cell Death: −
